In patent US5037830A, “Novel thiouracyl derivatives, pharmaceutical compositions containing them and process for preparing same” (Richter Gedeon Vegyeszeti Gyar RT, priority 1989, dated 1991):

What was measured:
[1] = system: carbachol-induced gastric acid secretion; test: Inhibition of the carbachol-induced gastric acid secretion in rats; assay type: in vivo, male OFA rats; conditions: for Gastric acid, change / Gastric juice, change: vs control; for Gastric juice, treated: carbachol 0.01 mg/kg/hour; for ED50: Rattus norvegicus, ip, carbachol-induced, dose column i.p.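 On Gastric acid, treated: dosed 30 min before a 5 hour experiment.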
Procedure: (§1) After being starved for 24 hours, male OFA rats weighing 250 to 320 g were anaestethized by 40% urethane (0.5 ml/100 g), then the trachea and jugular vein were cannulated (10 animals were used for each dose). A glass cannula was inserted to the stomach from the direction of the pylorus. The stomach was washed with lukewarm water and then purified by air blown through. The gastric acid secretion was induced by an infusion of histamine (5 mg/kg/hour), or pentagastrin (0.05 mg/kg/hour) or carbachol (0.01 mg/kg/hour), respectively. […]

[2] = system: pentagastrin-induced gastric acid secretion; test: Inhibition of the pentagastrin-induced gastric acid secretion in rats; assay type: in vivo, male OFA rats; conditions: for Gastric acid, change / Gastric juice, change: vs control; for Gastric juice, treated: pentagastrin 0.05 mg/kg/hour; for ED50: Rattus norvegicus, ip, pentagastrin-induced, dose column i.p.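 On Gastric acid, treated: dosed 30 min before a 5 hour experiment.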
Procedure: as §1

[3] = system: pentagastrin-induced gastric acid secretion; test: Inhibition of the pentagastrin-induced gastric acid secretion in dogs; assay type: in vivo, Beagle dogs
Procedure: (§2) After being starved for 24 hours, Beagle dogs of both sexes weighing 6.3 to 11.9 kg were anaesthetized with sodium pentobarbital (30 mg/kg i.v.). The trachea and femoral veins on both sides were cannulated. After laparotomy the pylorus was ligated, a glass cannula was placed into the anterior side of the stomach and fixed by a purse string suture to the stomach wall, abdominal wall and abdominal skin. A rubber probe was introduced to the stomach through the mouth. The animal thus prepared was put onto a Pavlov's frame. The steady sleep was ensured by the infusion of sodium pentobarbital (5 mg/kg/hour). The stomach was washed with lukewarm water and emptied. The secretion-inducing agents (histamine, pentagastrin, carbachol) were administered in a volume of 12 ml/hour for 2 hours in the following doses:
(§3) After 2 hours the infusion was stopped, the volume of the gastric juice produced was measured and its acid content was determined by titration with 0.1N NaOH by using Topfer's indicator. The compound of Example 1 was administered in a 25 mg/kg i.p. dose to the animals by 30 minutes before starting the infusion.

[4] = system: histamine-induced gastric acid secretion; test: Inhibition of the histamine-induced gastric acid secretion in dogs; assay type: in vivo, Beagle dogs
Procedure: as §2, §3

[5] = system: carbachol-induced gastric acid secretion; test: Inhibition of the carbachol-induced gastric acid secretion in dogs; assay type: in vivo, Beagle dogs
Procedure: as §2, §3

[6] = 25 mg/kg i.p. + Pentagastrin 0.03 mg/kg/hr
[7] = 25 mg/kg i.p. + Histamine 0.1 mg/kg/hr
[8] = 25 mg/kg i.p. + Carbachol 0.02 mg/kg/hr

For `CN(C)c1ccccc1C[S+]([O-])c1nc2ccccc2[nH]1` (stereo not shown) [NC-1300, 2-[(2-dimethylaminobenzyl)sulfinyl]-1H-benzimidazole, reference compound], the “Gastric acid, treated” value ([1]; 6.25 mg/kg i.p.) was 1.89 mL, the “Gastric acid, change” value ([1]; 6.25 mg/kg i.p.) was -31% and the “Gastric juice, change” value ([1]; 6.25 mg/kg i.p.) was -25%. For the same molecule, the “Gastric juice, treated” value ([1]; 6.25 mg/kg i.p.) was 1.55 mL, the “Gastric acid, treated” value ([1]; 9 mg/kg i.p.) was 1.86 mL and the “Gastric acid, change” value ([1]; 9 mg/kg i.p.) was -32%. The “Gastric juice, change” value ([1]; 9 mg/kg i.p.) was -24%, the “Gastric juice, treated” value ([1]; 9 mg/kg i.p.) was 1.57 mL and the “Gastric acid, treated” value ([1]; 12.5 mg/kg i.p.) was 0.72 mL. The “Gastric acid, change” value ([1]; 12.5 mg/kg i.p.) was -74%, the “Gastric juice, change” value ([1]; 12.5 mg/kg i.p.) was -58% and the “Gastric juice, treated” value ([1]; 12.5 mg/kg i.p.) was 0.87 mL. For the same molecule, the ED50 [1] was 9.6 mg/kg, the “Gastric acid, treated” value ([2]; 5 mg/kg i.p.) was 1.25 mL and the “Gastric acid, change” value ([2]; 5 mg/kg i.p.) was -23%. For the same molecule, the “Gastric juice, change” value ([2]; 5 mg/kg i.p.) was -26%, the “Gastric juice, treated” value ([2]; 5 mg/kg i.p.) was 0.92 mL and the “Gastric acid, treated” value ([2]; 10 mg/kg i.p.) was 0.47 mL. For the same molecule, the “Gastric acid, change” value ([2]; 10 mg/kg i.p.) was -74%, the “Gastric juice, change” value ([2]; 10 mg/kg i.p.) was -70% and the “Gastric juice, treated” value ([2]; 10 mg/kg i.p.) was 0.35 mL. For the same molecule, the “Gastric acid, treated” value ([2]; 20 mg/kg i.p.) was 0.32 mL, the “Gastric acid, change” value ([2]; 20 mg/kg i.p.) was -82% and the “Gastric juice, change” value ([2]; 20 mg/kg i.p.) was -77%. For the same molecule, the “Gastric juice, treated” value ([2]; 20 mg/kg i.p.) was 0.27 mL and the ED50 [2] was 7.9 mg/kg.

`Cc1cc(=O)[nH]c(SCc2ccccc2N(C)C)n1` [Example 1, 2-(2-dimethylaminobenzyl)thio-6-methyl-4(3H)-pyrimidinone] was tested, and the Gastric acid volume [3, 6] was 1.43 ± 0.77 ml/kg/2 hr, the Gastric acid, change [3, 6] was -76% and the Gastric juice volume [3, 6] was 2.90 ± 0.48 ml/kg/2 hr. The Gastric juice, change [3, 6] was -54%, the “inhibition of gastric acid secretion, in words” value (shortened to “inhibition”) ([3]; dogs compared with rats, pentagastrin) was “with the same efficiency in dogs as in rats” and the “Gastric acid, treated” value ([1]; 12.5 mg/kg i.p.) was 2.14 mL. For the same molecule, the “Gastric acid, change” value ([1]; 12.5 mg/kg i.p.) was -22%, the “Gastric juice, change” value ([1]; 12.5 mg/kg i.p.) was -20% and the “Gastric juice, treated” value ([1]; 12.5 mg/kg i.p.) was 1.65 mL. The “Gastric acid, treated” value ([1]; 20 mg/kg i.p.) was 0.90 mL, the “Gastric acid, change” value ([1]; 20 mg/kg i.p.) was -67% and the “Gastric juice, change” value ([1]; 20 mg/kg i.p.) was -66%. The “Gastric juice, treated” value ([1]; 20 mg/kg i.p.) was 0.71 mL, the “Gastric acid, treated” value ([1]; 25 mg/kg i.p.) was 0.37 mL and the “Gastric acid, change” value ([1]; 25 mg/kg i.p.) was -87%. For the same molecule, the “Gastric juice, change” value ([1]; 25 mg/kg i.p.) was -83%, the “Gastric juice, treated” value ([1]; 25 mg/kg i.p.) was 0.34 mL and the ED50 [1] was 16.5 mg/kg. The Gastric acid volume [4, 7] was 3.90 ml/kg/2 hr, the Gastric acid, change [4, 7] was -75% and the Gastric juice volume [4, 7] was 3.85 ml/kg/2 hr. The Gastric juice, change [4, 7] was -69%, the “inhibition” value ([4]; dogs compared with rats, histamine) was “with the same efficiency in dogs as in rats” and the Gastric acid volume [5, 8] was 1.84 ± 0.74 ml/kg/2 hr. The Gastric acid, change [5, 8] was -80%, the Gastric juice volume [5, 8] was 2.55 ± 0.79 ml/kg/2 hr and the Gastric juice, change [5, 8] was -69%. For the same molecule, the “inhibition” value ([5]; dogs compared with rats, carbachol) was “with the same efficiency in dogs as in rats”, the “Gastric acid, treated” value ([2]; 6.25 mg/kg i.p.) was 1.79 mL and the “Gastric acid, change” value ([2]; 6.25 mg/kg i.p.) was -34%. The “Gastric juice, change” value ([2]; 6.25 mg/kg i.p.) was -31%, the “Gastric juice, treated” value ([2]; 6.25 mg/kg i.p.) was 1.26 mL and the “Gastric acid, treated” value ([2]; 12.5 mg/kg i.p.) was 1.21 mL. For the same molecule, the “Gastric acid, change” value ([2]; 12.5 mg/kg i.p.) was -55%, the “Gastric juice, change” value ([2]; 12.5 mg/kg i.p.) was -51% and the “Gastric juice, treated” value ([2]; 12.5 mg/kg i.p.) was 0.90 mL. The “Gastric acid, treated” value ([2]; 25 mg/kg i.p.) was 0.51 mL, the “Gastric acid, change” value ([2]; 25 mg/kg i.p.) was -81% and the “Gastric juice, change” value ([2]; 25 mg/kg i.p.) was -78%. For the same molecule, the “Gastric juice, treated” value ([2]; 25 mg/kg i.p.) was 0.41 mL and the ED50 [2] was 9.5 mg/kg.
